The values that follow come from patent US5459148A, “Biphenyl derivatives and their use for the treatment of hypertension and cardiac disease” (Sankyo Company, Limited, priority 1992, dated 1995).

The structures appear in SMILES notation.

The assay deals with T1, AII receptor (Rattus norvegicus, UniProt P25095).
T1 construct: from tissue; host or cells: whole anesthetized male Wister-Imamichi rat (in vivo, blood pressure in the femoral artery)
T1 sequence (P25095 1-359): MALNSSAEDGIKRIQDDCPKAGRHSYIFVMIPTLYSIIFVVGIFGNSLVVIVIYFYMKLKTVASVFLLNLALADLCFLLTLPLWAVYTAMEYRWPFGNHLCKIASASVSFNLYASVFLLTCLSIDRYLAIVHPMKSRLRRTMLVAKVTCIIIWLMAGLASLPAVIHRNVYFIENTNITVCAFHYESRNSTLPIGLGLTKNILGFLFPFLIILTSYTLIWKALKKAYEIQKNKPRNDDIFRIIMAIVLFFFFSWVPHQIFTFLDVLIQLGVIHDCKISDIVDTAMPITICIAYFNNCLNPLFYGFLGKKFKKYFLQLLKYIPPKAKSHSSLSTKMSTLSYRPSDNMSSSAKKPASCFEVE
As to the kind of experiment: Inhibition of pressor response to intravenous angiotensin II (AII receptor blocking activity). The assay is classed as in vivo, rat (male Wister-Imamichi). To be noted: 2 min, read-out: ID50 (dose required to inhibit the pressor response to intravenous angiotensin II by fifty percent). The protocol:
Evaluation of AII receptor blocking activity by Inhibition of pressor response to angiotensin II
The biological activity of each compound was assessed by determining the dose required to inhibit the pressor response to intravenous angiotensin II by fifty percent (ID50) in rats. Male Wister-Imamichi rats, each weighing 300 to 400 g, were anesthesized by intraperitoneal injection of 100 mg/Kg of sodium thiobutabarbital [Inactin (trade name)] and two cannulae were inserted: one into the femoral artery for measuring blood pressure and the other into the femoral vein for injecting drugs. […] The percent inhibitions of the pressor response to angiotensin II by progressive increase of the test compound was used to calculate the value of ID50. Angiotensin II was used in this test dissolved in 0.5% bovine serum albumin (BSA) and the test compounds were dissolved in 100% dimethyl sulfoxide (DMSO).
As to `CCCCc1nc(C(O)C(C)C)c(C(N)=O)n1Cc1ccc(-c2ccccc2C(=O)C(=O)O)cc1` (stereo not shown) [Example 12, 2-Butyl-4-(1-hydroxy-2-methylpropyl)-1-[(2'-oxalobiphenyl-4-yl)methyl]imidazole-5-carboxamide], the ED50 was 0.042 mg/kg.
As to `C=C(C)c1nc(CCC)n(Cc2ccc(-c3ccccc3C(=O)C(=O)O)cc2)c1C(=O)O` [Example 8, 4-Isopropenyl-1-[(2'-oxalobiphenyl-4-yl)methyl]-2-propylimidazole-5-carboxylic acid], the ED50 amounted to 0.06 mg/kg.
Consider `CCCc1nc(C(C)(C)O)c(C(=O)O)n1Cc1ccc(-c2ccccc2C(=O)C(=O)O)cc1` [Example 1, 4-(1-Hydroxy-1-methylethyl)-1-[(2'-oxalobiphenyl-4-yl)methyl]-2-propylimidazole-5-carboxylic acid], for which the ED50 was 0.0065 mg/kg.
On to `CCCCc1nc(C(O)C(C)(C)C)c(C(N)=O)n1Cc1ccc(-c2ccccc2C(=O)C(=O)O)cc1` (stereo not shown) [Example 13, 2-Butyl-4-(1-hydroxy-2,2-dimethylpropyl)-1-[(2'-oxalobiphenyl-4-yl)methyl]imidazole-5-carboxamide], for which the ED50 turned out to be 0.048 mg/kg.
For the molecule `CCCc1nc(C(C)(C)O)c(C(=O)O)n1Cc1ccc(-c2ccccc2C(=O)c2nnn[nH]2)cc1` [Example 20, 4-(1-Hydroxy-1-methylethyl)-1-{[2'-(tetrazol-5-ylcarbonyl)biphenyl-4-yl]methyl}-2-propylimidazole-5-carboxylic acid], the ED50 was determined as 0.026 mg/kg.
Turning to `CCCc1nc(C(C)C)c(C(=O)O)n1Cc1ccc(-c2ccccc2C(=O)C(=O)O)cc1` [Example 9, 4-Isopropyl-1-[(2'-oxalobiphenyl-4-yl)methyl]-2-propylimidazole-5-carboxylic acid], the ED50 was found to be 0.053 mg/kg.
In the case of `CCCc1nc(C(O)C(C)(C)C)c(C(N)=O)n1Cc1ccc(-c2ccccc2C(=O)C(=O)O)cc1` (stereo not shown) [Example 11, 4-(1-Hydroxy-2,2-dimethylpropyl)-1-[(2'-oxalobiphenyl-4-yl)methyl]-2-propylimidazole-5-carboxamide], the ED50 is 0.017 mg/kg.
The result for `CCCc1nc(CO)c(C(=O)O)n1Cc1ccc(-c2ccccc2C(=O)C(=O)O)cc1` [Example 6, 4-Hydroxymethyl-1-[(2'-oxalobiphenyl-4-yl)methyl]-2-propylimidazole-5-carboxylic acid] reads 0.02 mg/kg; that for `CCCCc1nc(C(C)(C)O)c(C(=O)O)n1Cc1ccc(-c2ccccc2C(=O)C(=O)O)cc1` [Example 2, 2-Butyl-4-(1-hydroxy-1-methylethyl)-1-[(2'-oxalobiphenyl-4-yl)methyl]imidazole-5-carboxylic acid], 0.026 mg/kg.
Then `CCCc1nc(C(C)(C)O)c(-c2nnn[nH]2)n1Cc1ccc(-c2ccccc2C(=O)C(=O)O)cc1` [Example 7, {4'-[4-(1-Hydroxy-1-methylethyl)-2-propyl-5-(tetrazol-5-yl)imidazol-1-ylmethyl]biphenyl-2-yl}glyoxylic acid], with 0.021 mg/kg.
Consider `CCOCc1nc(C(C)(C)O)c(C(=O)O)n1Cc1ccc(-c2ccccc2C(=O)C(=O)O)cc1` [Example 14, 2-Ethoxymethyl-4-(1-hydroxy-1-methylethyl)-1-[(2'-oxalobiphenyl-4-yl)methyl]imidazole-5-carboxylic acid], for which the ED50 was 0.0096 mg/kg.
The result for `CCc1nc2c(C)cc(C)nc2n1Cc1ccc(-c2ccccc2C(=O)C(=O)O)cc1` [Example 16, 2-Ethyl-5,7-dimethyl-3-(2'-oxalobiphenyl-4-yl)methyl-3H-imidazo[4,5-b]pyridine] reads 0.024 mg/kg; that for `CCCc1nc(C(O)C(C)C)c(C(N)=O)n1Cc1ccc(-c2ccccc2C(=O)C(=O)O)cc1` (stereo not shown) [Example 10, 4-(1-Hydroxy-2-methylpropyl)-1-[(2'-oxalobiphenyl-4-yl)-methyl]-2-propylimidazole-5-carboxamide], 0.022 mg/kg.
